Test results as given in ChEMBL document CHEMBL2073858, “Cloning and characterization of a pH-sensing regulatory factor that modulates transport activity of the human H+/peptide cotransporter, PEPT1” (Biochem Biophys Res Commun, 1997).
Square brackets hold non-standard residues; d marks the D form. Peptide text beside a SMILES is read from it. Sar = CNCC(=O)O

Target: T1, Solute carrier family 15 member 1 (Homo sapiens) (UniProt P46059)
T1 sequence (whole entry): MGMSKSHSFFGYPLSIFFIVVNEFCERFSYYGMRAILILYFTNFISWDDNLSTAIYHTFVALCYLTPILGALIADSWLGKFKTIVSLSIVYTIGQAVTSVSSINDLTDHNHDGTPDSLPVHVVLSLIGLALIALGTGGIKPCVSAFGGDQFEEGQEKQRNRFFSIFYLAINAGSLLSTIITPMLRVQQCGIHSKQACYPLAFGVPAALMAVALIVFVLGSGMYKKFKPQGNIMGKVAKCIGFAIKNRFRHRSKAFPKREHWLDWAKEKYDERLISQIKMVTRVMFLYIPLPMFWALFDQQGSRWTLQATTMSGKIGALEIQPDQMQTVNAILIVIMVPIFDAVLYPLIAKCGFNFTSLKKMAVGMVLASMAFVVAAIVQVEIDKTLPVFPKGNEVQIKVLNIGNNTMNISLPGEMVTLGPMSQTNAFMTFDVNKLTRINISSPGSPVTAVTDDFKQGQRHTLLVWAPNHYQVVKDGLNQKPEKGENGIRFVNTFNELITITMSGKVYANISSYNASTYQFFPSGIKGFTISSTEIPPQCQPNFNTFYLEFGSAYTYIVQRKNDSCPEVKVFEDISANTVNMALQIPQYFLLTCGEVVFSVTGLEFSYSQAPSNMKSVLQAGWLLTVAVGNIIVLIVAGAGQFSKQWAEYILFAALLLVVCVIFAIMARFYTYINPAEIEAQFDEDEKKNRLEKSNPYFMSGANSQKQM
Test: TP_TRANSPORTER: uptake in Xenopus laevis oocytes
Format: functional, cell-based
Settings: Oocyte

Activity: substrate [+]
SMILES: CN(CC(=O)O)C(=O)CN (H-Gly-[Sar]-OH)
